Experimental data: patent EP2676962A1, “Derivatives of 1-aminoalkylphosphonate diaryl esters, method of 1-aminoalkylphosphonate diaryl ester derivatives preparation and their application” (priority 2012, dated 2013)
Like-named read-outs stand apart in the source and are kept apart here.

Legend:
Type in all cases: biochemical
cathepsin G (CatG) = target: T1, cathepsin G (CatG) (Homo sapiens, UniProt P08311); assay: Inhibitory activity toward cathepsin G, fluorogenic substrate, microplate reader
T1 sequence (P08311 21-244): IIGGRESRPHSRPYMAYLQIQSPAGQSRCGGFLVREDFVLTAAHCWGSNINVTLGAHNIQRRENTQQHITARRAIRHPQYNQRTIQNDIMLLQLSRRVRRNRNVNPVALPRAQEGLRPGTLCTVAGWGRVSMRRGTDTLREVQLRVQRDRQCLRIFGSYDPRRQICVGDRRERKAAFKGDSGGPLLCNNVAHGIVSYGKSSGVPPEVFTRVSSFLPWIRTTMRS
Experimental: (§1) The biological activity of peptidyl derivatives of phosphonic analogs of valine, alanine, phenylalanine, 4-guanidinephenylglycine, leucine, and 1-aminobutyric acid, containing the N-terminal biotin residue were tested for their ability to inhibit proteolytic activity of selected serine proteases, and the control cysteine proteases. All tests were performed using a microplate reader. As enzyme substrates fluorescent peptides were used. The method to measure the activity of the compounds obtained are described below for each of the enzymes tested: human neutrophil elastase (HNE), porcine pancreatic elastase (PPE), subtilisin (Sub), cathepsin G (CatG), proteinase 3 (PR3), chymotrypsin (ChTry) trypsin (Try), papain (Pap) and cathepsin L (CatL). Measurement of the inhibitory activity was performed at different inhibitor concentrations ranging from 12.5 nM to 2000nm.
Measurement of inhibitory activity of compounds toward cathepsin G (CatG).
(§2) The inhibitory activity assay is performed at 37°C in 0,1M Tric-HCl, 0,5M NaCl buffer, pH 7,5, within 10 min after initial pre-incubation of the enzyme with inhibitor tested at 37°C for 10 min. The enzyme concentration is 100nM. Substrate used MCA-Phe-Val-Thr-Gnf-Ser-Trp-Anb-NH2 at 2.5µM. Measurement is taken at an excitation wavelength of 325nm and 400nm emission.
(§3) The IC50 value is the concentration of inhibitor required to inhibit half of the enzyme activity after 10 minutes incubation.

proteinase 3 (PR3) = target: T2, proteinase 3 (PR3) (Homo sapiens, UniProt P24158); assay: Inhibitory activity toward proteinase 3, fluorogenic substrate, microplate reader
T2 sequence (P24158 28-248): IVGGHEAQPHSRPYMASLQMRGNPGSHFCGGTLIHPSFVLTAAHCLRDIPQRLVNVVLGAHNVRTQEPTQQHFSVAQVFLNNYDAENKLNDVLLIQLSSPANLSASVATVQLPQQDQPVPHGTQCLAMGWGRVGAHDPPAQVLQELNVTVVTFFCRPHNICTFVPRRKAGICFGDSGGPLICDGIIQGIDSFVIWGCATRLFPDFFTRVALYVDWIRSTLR
Experimental: as §1
Measurement of inhibitory activity of compounds toward proteinase 3(PR3).
as §2, with “17nM.” for “100nM.”, “Abz-Tyr-Tyr-Abu-Anb-NH2” for “MCA-Phe-Val-Thr-Gnf-Ser-Trp-Anb-NH2”, “30µM.” for “2.5µM.”
as §3

chymotrypsin (ChTry) = chymotrypsin (ChTry) (Bos taurus, UniProt P00766); assay: Inhibitory activity toward chymotrypsin, fluorogenic substrate, microplate reader; conditions: 10 min pre-incubation at 37°C, pH 7,5, Suc-Ala-Ala-Pro-Phe-AMC 5µM; NI = brak inhibicji (no inhibition)
Experimental: as §1
Measurement of inhibitory activity of compounds toward […] (ChyTry).
as §2, with “HEPES,” for “Tric-HCl,”, “3nM.” for “100nM.”, “Suc-Ala-Ala-Pro-Phe-AMC” for “MCA-Phe-Val-Thr-Gnf-Ser-Trp-Anb-NH2”, “5µM.” for “2.5µM.”, “350nm” for “325nm”, “460nm” for “400nm”
as §3

subtilisin (Sub) = subtilisin (Sub) (Bacillus licheniformis, UniProt P00780); assay: Inhibitory activity toward subtilisin, fluorogenic substrate, microplate reader; conditions: for Sub Kobs/[I]: 10 min pre-incubation at 37°C, pH 7,5, Me-Suc-Ala-Ala-Pro-Phe-AMC 5µM, NI = brak inhibicji (no inhibition)
Sequence of subtilisin (Sub) (P00780 106-379): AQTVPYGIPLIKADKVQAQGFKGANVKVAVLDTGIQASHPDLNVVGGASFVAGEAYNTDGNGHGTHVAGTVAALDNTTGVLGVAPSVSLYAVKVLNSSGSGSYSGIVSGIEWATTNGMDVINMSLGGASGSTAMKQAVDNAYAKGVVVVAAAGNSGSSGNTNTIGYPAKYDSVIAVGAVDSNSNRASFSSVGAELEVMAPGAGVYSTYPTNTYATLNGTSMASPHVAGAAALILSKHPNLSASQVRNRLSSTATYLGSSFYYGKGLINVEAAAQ
Experimental: as §1
Measurement of inhibitory activity of compounds toward subtilisin (Sub).
(§4) The inhibitory activity assay is performed at 37°C in 0,05M Tris-HCl, 1M NaCl, 0,01% Triton X-100 buffer, pH 7,5, within 10 min after initial pre-incubation of the enzyme with inhibitor tested at 37°C for 10 min. The enzyme concentration is 5nM. Substrate used Me-Suc-Ala-Ala-Pro-Phe-AMC at 5µM. Measurement is taken at an excitation wavelength of 350nm and 460nm emission.
as §3

[1] = target: porcine pancreatic elastase (PPE) (Sus scrofa, UniProt P00772); assay: Inhibitory activity toward porcine pancreatic elastase, fluorogenic substrate, microplate reader
Sequence of porcine pancreatic elastase (PPE) (P00772 27-266): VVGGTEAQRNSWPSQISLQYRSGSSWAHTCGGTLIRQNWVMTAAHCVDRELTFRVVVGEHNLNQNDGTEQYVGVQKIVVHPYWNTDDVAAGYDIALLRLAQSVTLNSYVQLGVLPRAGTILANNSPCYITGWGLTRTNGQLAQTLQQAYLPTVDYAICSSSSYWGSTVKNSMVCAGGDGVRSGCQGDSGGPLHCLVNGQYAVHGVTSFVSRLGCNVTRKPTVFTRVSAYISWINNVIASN
Experimental: as §1
Measurement of inhibitory activity of compounds toward porcine pancreatic elastase (PPE).
as §4, with “0,01M” for “0,05M”, “0,05%” for “1M NaCl, 0,01%”, “8,5,” for “7,5,”, “60nM.” for “5nM.”, “Me-Suc-Ala-Ala-Pro-Val-AMC” for “Me-Suc-Ala-Ala-Pro-Phe-AMC”, “100µM.” for “5µM.”
as §3

[2] = target: T3, human neutrophil elastase (HNE) (Homo sapiens, UniProt P08246); assay: Inhibitory activity toward human neutrophil elastase, fluorogenic substrate, microplate reader
T3 sequence (P08246 30-267): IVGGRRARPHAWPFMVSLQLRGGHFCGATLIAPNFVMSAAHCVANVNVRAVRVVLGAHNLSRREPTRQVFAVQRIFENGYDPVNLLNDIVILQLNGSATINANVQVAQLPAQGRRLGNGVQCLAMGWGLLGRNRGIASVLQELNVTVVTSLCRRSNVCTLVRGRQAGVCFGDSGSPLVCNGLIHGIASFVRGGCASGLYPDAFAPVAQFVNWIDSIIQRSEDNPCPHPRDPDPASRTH
Experimental: as §1
Measurement of inhibitory activity of compounds toward human neutrophil elastase (HNE).
The inhibitory activity assay is performed at 37°C in 0,01M HEPES, 0,5M NaCl, 0,03% Triton X-100 buffer, pH 7,5, within 10 min after initial pre-incubation of the enzyme with inhibitor tested at 37°C for 10 min. The enzyme concentration is 0,0025U/ml. Substrate used Me-Suc-Ala-Ala-Pro-Val-AFC at 25µM. Measurement is taken at an excitation wavelength of 400nm and 505nm emission.
as §3

[3] = 10 min pre-incubation at 37°C, pH 7,5, MCA-Phe-Val-Thr-Gnf-Ser-Trp-Anb-NH2 2.5µM, NI = brak inhibicji (no inhibition)
[4] = read-out: PR3 IC50, 10 min pre-incubation at 37°C, pH 7,5, Abz-Tyr-Tyr-Abu-Anb-NH2 30µM, NI = brak inhibicji (no inhibition)
[5] = read-out: PPE IC50, 10 min pre-incubation at 37°C, pH 8,5, Me-Suc-Ala-Ala-Pro-Val-AMC 100µM, NI = brak inhibicji (no inhibition)
[6] = read-out: HNE IC50, 10 min pre-incubation at 37°C, pH 7,5, Me-Suc-Ala-Ala-Pro-Val-AFC 25µM, NI = brak inhibicji (no inhibition)
[7] = read-out: Cat G IC50, 10 min pre-incubation at 37°C, pH 7,5, MCA-Phe-Val-Thr-Gnf-Ser-Trp-Anb-NH2 2.5µM, NI = brak inhibicji (no inhibition)
[8] = 10 min pre-incubation at 37°C, pH 8,5, Me-Suc-Ala-Ala-Pro-Val-AMC 100µM, NI = brak inhibicji (no inhibition)
[9] = 10 min pre-incubation at 37°C, pH 7,5, Me-Suc-Ala-Ala-Pro-Val-AFC 25µM, NI = brak inhibicji (no inhibition)

CC(C)C(NC(=O)CCCCC1SCC2NC(=O)NC21)C(=O)N1CCCC1C(=O)NC(Cc1ccccc1)P(=O)(Oc1ccccc1)Oc1ccccc1 (centres unmarked) [Compound 3, diphenyl 1-(1-(3-methyl-2-(5-(2-oxohexahydro-1H-thieno[3,4-d]imidazol-4-yl)pentanamido)butanoyl)pyrrolidine-2-carboxamido)-2-phenylethylphosphonate]
IC50 (cathepsin G (CatG)): 258 ± 33 nM | Cat G Kobs/[I] (cathepsin G (CatG); [3]): 4.5*10^3 M^-1S^-1 | IC50 (proteinase 3 (PR3); [4]): > 5000 nM | ChyTr Kobs/[I] (chymotrypsin (ChTry)): 5.6*10^4 M^-1S^-1 | IC50 (subtilisin (Sub)): 11.6 ± 0.2 nM | Sub Kobs/[I] (subtilisin (Sub)): 1.0*10^5 M^-1S^-1 | IC50 [1, 5]: > 5000 nM | IC50 [2, 6]: > 5000 nM

CSc1ccc(OP(=O)(Oc2ccc(SC)cc2)C(C)NC(=O)C2CCCN2C(=O)C(NC(=O)CCCCC2SCC3NC(=O)NC32)C(C)C)cc1 (centres unmarked) [Compound 4, bis(4-(methylthio)phenyl) 1-(1-(3-methyl-2-(5-(2-oxohexahydro-1H-thieno[3,4-d]imidazol-4-yl)pentanamido)butanoyl)pyrrolidine-2-carboxamido)ethylphosphonate]
IC50 (cathepsin G (CatG); [7]): > 5000 nM | IC50 (proteinase 3 (PR3); [4]): > 5000 nM | IC50 (subtilisin (Sub)): 40.2 ± 0.01 nM | Sub Kobs/[I] (subtilisin (Sub)): 2.9*10^4 M^-1S^-1 | IC50 [1]: 136 ± 7.5 nM | PPE Kobs/[I] [1, 8]: 8.5*10^3 M^-1S^-1 | IC50 [2]: 5.55 ± 0.25 nM | HNE Kobs/[I] [2, 9]: 2.1*10^5 M^-1S^-1

CC(C)C(NC(=O)CCCCC1SCC2NC(=O)NC21)C(=O)N1CCCC1C(=O)NC(C(C)C)P(=O)(Oc1ccccc1)Oc1ccccc1 (centres unmarked) [Compound 2, diphenyl 2-methyl-1-(1-(3-methyl-2-(5-(2-oxohexahydro-1H-thieno[3,4-d]imidazol-4-yl)pentanamido)butanoyl)pyrrolidine-2-carboxamido)propylphosphonate]
IC50 (cathepsin G (CatG); [7]): > 5000 nM | IC50 (proteinase 3 (PR3)): 728 ± 44 nM | PR3 Kobs/[I] (proteinase 3 (PR3); 10 min pre-incubation at 37°C, pH 7,5, Abz-Tyr-Tyr-Abu-Anb-NH2 30µM, NI = brak inhibicji (no inhibition)): 3.2*10^3 M^-1S^-1 | IC50 (subtilisin (Sub)): 415 ± 17 nM | Sub Kobs/[I] (subtilisin (Sub)): 2.8*10^3 M^-1S^-1 | IC50 [1]: 246 ± 30.5 nM | PPE Kobs/[I] [1, 8]: 4.7*10^3 M^-1S^-1 | IC50 [2]: 6.5 ± 0.3 nM | HNE Kobs/[I] [2, 9]: 1.8*10^5 M^-1S^-1

CC(C)C(NC(=O)CCC(=O)NCCCCCNC(=O)CCCCC1SCC2NC(=O)NC21)C(=O)N1CCCC1C(=O)NC(Cc1ccccc1)P(=O)(Oc1ccccc1)Oc1ccccc1 (centres unmarked) [Compound 10, diphenyl (1-(1-(3-methyl-2-(4-oxo-4-((5-(5-(2-oxohexahydro-1H-thieno[3,4-d]imidazol-4-yl)pentanamido)pentyl)amino)butanamido)butanoyl)pyrrolidine-2-carboxamido)-2-phenylethyl)phosphonate]
IC50 (cathepsin G (CatG)): 300 ± 0.5 nM | Cat G Kobs/[I] (cathepsin G (CatG); [3]): 3.8*10^3 M^-1S^-1 | IC50 (proteinase 3 (PR3); [4]): > 5000 nM | ChyTr Kobs/[I] (chymotrypsin (ChTry)): 7.0*10^4 M^-1S^-1 | IC50 (subtilisin (Sub)): 39.9 ± 4.6 nM | Sub Kobs/[I] (subtilisin (Sub)): 2.9*10^4 M^-1S^-1 | IC50 [1, 5]: > 5000 nM | IC50 [2, 6]: > 5000 nM

COc1ccc(OP(=O)(Oc2ccc(OC)cc2)C(CC(C)C)NC(=O)C2CCCN2C(=O)C(NC(=O)CCCCC2SCC3NC(=O)NC32)C(C)C)cc1 (centres unmarked) [Compound 5, bis(4-methoxyphenyl) (3-methyl-1-(1-(3-methyl-2-(5-(2-oxohexahydro-1H-thieno[3,4-d]imidazol-4-yl)pentanamido)butanoyl)pyrrolidine-2-carboxamido)butyl)phosphonate]
IC50 (cathepsin G (CatG); [7]): > 5000 nM | IC50 (proteinase 3 (PR3); [4]): > 5000 nM | ChyTr Kobs/[I] (chymotrypsin (ChTry)): 7.4*10^3 M^-1S^-1 | IC50 (subtilisin (Sub)): 47.9 ± 0.57 nM | Sub Kobs/[I] (subtilisin (Sub)): 2.4*10^4 M^-1S^-1 | IC50 [1]: 5000 nM | PPE Kobs/[I] [1, 8]: 2*10^2 M^-1S^-1 | IC50 [2, 6]: > 5000 nM
